Experimental data: the NIST ThermoML archive (doi:10.1016/j.jct.2013.09.010)
Several values for one entry are separate records, joined by “and”; a condition that tells them apart may be missing. Equal entries are not always repeated.

What was measured:
[1] = Liquid, Vibrating tube method
[2] = molar heat capacity at constant pressure; conditions: 101 kPa, Liquid, Small sample (50 mg) DSC

CCCCC(=O)[O-].C[NH2+]CCO [2-hydroxy-N-methylethanaminium pentanoate]
mass density [kg/m3], [1]
Conditions | 298.15 K | 308.15 K | 318.15 K | 328.15 K | 338.15 K | 348.15 K | 358.15 K
100 kPa | 1009.33 | 1002.78 | 996.28 | 989.85 | 983.48 | 977.17 | 970.92
5000 kPa | 1011.62 | 1005.23 | 998.89 | 992.6 | 986.35 | 980.15 | 974
10000 kPa | 1014.08 | 1007.73 | 1001.45 | 995.24 | 989.11 | 983.05 | 977.05
15000 kPa | 1016.41 | 1010.14 | 1003.96 | 997.85 | 991.83 | 985.88 | 980.01
20000 kPa | 1018.67 | 1012.49 | 1006.39 | 1000.37 | 994.43 | 988.57 | 982.79
25000 kPa | 1020.85 | 1014.74 | 1008.72 | 1002.79 | 996.97 | 991.23 | 985.59

[2]
Conditions | molar heat capacity at constant pressure
283.15 K | 384.8 J/K/mol
287.15 K | 396.1 J/K/mol and 394.2 J/K/mol
288.15 K | 395.6 J/K/mol [middle of 5 runs]
289.15 K | 396 J/K/mol [middle of 4 runs]
290.15 K | 396.8 J/K/mol [middle of 4 runs]
291.15 K | 397.4 J/K/mol [middle of 4 runs]
292.15 K | 397.9 J/K/mol [middle of 4 runs]
293.15 K | 397.7 J/K/mol [middle of 5 runs]
294.15 K | 398.4 J/K/mol [middle of 4 runs]
295.15 K | 399 J/K/mol [middle of 4 runs]
296.15 K | 399.3 J/K/mol and 397.9 J/K/mol and 400.7 J/K/mol
297.15 K | 400 J/K/mol [middle of 4 runs]
298.15 K | 400.6 J/K/mol [middle of 4 runs]
299.15 K | 402.3 J/K/mol and 401.1 J/K/mol and 399.5 J/K/mol
300.15 K | 401.8 J/K/mol [middle of 4 runs]
301.15 K | 402.3 J/K/mol [middle of 4 runs]
302.15 K | 402.7 J/K/mol [middle of 4 runs]
303.15 K | 402.3 J/K/mol [middle of 5 runs]
304.15 K | 403.2 J/K/mol [middle of 4 runs]
305.15 K | 403.6 J/K/mol [middle of 4 runs]
306.15 K | 405 J/K/mol and 403 J/K/mol and 402.3 J/K/mol
307.15 K | 402.7 J/K/mol
308.15 K | 401.6 J/K/mol and 403 J/K/mol
309.15 K | 403.4 J/K/mol
310.15 K | 403.8 J/K/mol
311.15 K | 404.3 J/K/mol
312.15 K | 404.6 J/K/mol
313.15 K | 405 J/K/mol and 405.2 J/K/mol
314.15 K | 405.5 J/K/mol
315.15 K | 405.7 J/K/mol
316.15 K | 406.1 J/K/mol
317.15 K | 406.1 J/K/mol
318.15 K | 408.9 J/K/mol and 406.4 J/K/mol
319.15 K | 406.8 J/K/mol
320.15 K | 407.1 J/K/mol
321.15 K | 407.5 J/K/mol
322.15 K | 407.8 J/K/mol
323.15 K | 412.8 J/K/mol and 408.2 J/K/mol
324.15 K | 408.5 J/K/mol
325.15 K | 408.9 J/K/mol
328.15 K | 416.7 J/K/mol
333.15 K | 420.6 J/K/mol

CCC(=O)[O-].C[NH2+]CCO [2-hydroxy-N-methylethanaminium propionate]
mass density [kg/m3], [1]
Conditions | 100 kPa | 2000 kPa | 3000 kPa | 5000 kPa | 10000 kPa | 15000 kPa | 20000 kPa | 25000 kPa
298.15 K | 1065.75 | 1066.51 | 1066.95 | 1067.8 | 1069.86 | 1071.89 | 1073.87 | 1075.79
303.15 K | 1062.59 | 1063.37 | 1063.82 | 1064.69 | 1066.79 | 1068.87 | 1070.88 | 1072.86
308.15 K | 1059.41 | 1060.21 | 1060.67 | 1061.55 | 1063.7 | 1065.82 | 1067.88 | 1069.9
313.15 K | 1056.21 | 1057.03 | 1057.51 | 1058.4 | 1060.6 | 1062.76 | 1064.86 | 1066.92
318.15 K | 1052.99 | 1053.83 | 1054.32 | 1055.23 | 1057.47 | 1059.68 | 1061.82 | 1063.93
323.15 K | 1049.76 | 1050.61 | 1051.11 | 1052.04 | 1054.32 | 1056.58 | 1058.76 | 1060.91
328.15 K | 1046.5 | 1047.37 | 1047.89 | 1048.84 | 1051.16 | 1053.47 | 1055.68 | 1057.87
333.15 K | 1043.23 | 1044.11 | 1044.64 | 1045.61 | 1047.97 | 1050.33 | 1052.59 | 1054.82
338.15 K | 1039.93 | 1040.84 | 1041.38 | 1042.36 | 1044.77 | 1047.17 | 1049.47 | 1051.74
343.15 K | 1036.62 | 1037.54 | 1038.1 | 1039.1 | 1041.55 | 1043.99 | 1046.33 | 1048.65
348.15 K | 1033.29 | 1034.23 | 1034.8 | 1035.81 | 1038.3 | 1040.8 | 1043.17 | 1045.54
353.15 K | 1029.94 | 1030.9 | 1031.48 | 1032.51 | 1035.04 | 1037.58 | 1040 | 1042.4
358.15 K | 1026.57 | 1027.55 | 1028.14 | 1029.19 | 1031.76 | 1034.35 | 1036.8 | 1039.25

[2]
Conditions | molar heat capacity at constant pressure
287.15 K | 322.8 J/K/mol
288.15 K | 324.3 J/K/mol and 323.1 J/K/mol and 322.8 J/K/mol
289.15 K | 324.5 J/K/mol [middle of 4 runs]
290.15 K | 324.8 J/K/mol [middle of 5 runs]
291.15 K | 324.9 J/K/mol [middle of 5 runs]
292.15 K | 325.7 J/K/mol [middle of 5 runs]
293.15 K | 326.1 J/K/mol [middle of 5 runs]
294.15 K | 326.6 J/K/mol [middle of 4 runs]
295.15 K | 327 J/K/mol [middle of 4 runs]
296.15 K | 327.2 J/K/mol [middle of 4 runs]
297.15 K | 327.5 J/K/mol [middle of 5 runs]
298.15 K | 327.9 J/K/mol [middle of 4 runs]
299.15 K | 328.2 J/K/mol [middle of 5 runs]
300.15 K | 328.7 J/K/mol [middle of 5 runs]
301.15 K | 329.1 J/K/mol [middle of 5 runs]
302.15 K | 329.4 J/K/mol [middle of 5 runs]
303.15 K | 329.7 J/K/mol [middle of 5 runs]
304.15 K | 329.9 J/K/mol [middle of 4 runs]
305.15 K | 330 J/K/mol [middle of 4 runs]
306.15 K | 330.7 J/K/mol and 330.2 J/K/mol and 329.6 J/K/mol
307.15 K | 329.9 J/K/mol
308.15 K | 330.2 J/K/mol
309.15 K | 330.5 J/K/mol
310.15 K | 330.9 J/K/mol
311.15 K | 331.2 J/K/mol
312.15 K | 331.6 J/K/mol
313.15 K | 332.1 J/K/mol
314.15 K | 332.4 J/K/mol
315.15 K | 332.7 J/K/mol
316.15 K | 332.8 J/K/mol
317.15 K | 333 J/K/mol
318.15 K | 333.1 J/K/mol
319.15 K | 333.4 J/K/mol
320.15 K | 333.6 J/K/mol
321.15 K | 333.9 J/K/mol
322.15 K | 334 J/K/mol
323.15 K | 334.5 J/K/mol
324.15 K | 334.9 J/K/mol
325.15 K | 335.4 J/K/mol
326.15 K | 335.8 J/K/mol

CCCC(=O)[O-].C[NH2+]CCO [N-methyl-2-hydroxyethylammonium butanoate]
mass density [kg/m3], [1]
Conditions | 298.15 K | 308.15 K | 318.15 K | 328.15 K | 338.15 K | 348.15 K | 358.15 K
100 kPa | 1035.29 | 1028.57 | 1021.88 | 1015.21 | 1008.57 | 1001.95 | 995.35
5000 kPa | 1037.49 | 1030.87 | 1024.28 | 1017.71 | 1011.17 | 1004.66 | 998.16
10000 kPa | 1039.66 | 1033.14 | 1026.66 | 1020.2 | 1013.77 | 1007.36 | 1000.98
15000 kPa | 1041.88 | 1035.43 | 1029.02 | 1022.64 | 1016.3 | 1010 | 1003.73
20000 kPa | 1043.97 | 1037.61 | 1031.28 | 1024.99 | 1018.73 | 1012.5 | 1006.31
25000 kPa | 1046.02 | 1039.73 | 1033.49 | 1027.31 | 1021.17 | 1015.08 | 1009.04

[2]
Conditions | molar heat capacity at constant pressure
286.15 K | 357.3 J/K/mol
287.15 K | 358.4 J/K/mol
288.15 K | 357 J/K/mol
290.15 K | 358.9 J/K/mol
291.15 K | 360.7 J/K/mol
292.15 K | 356.8 J/K/mol
293.15 K | 358.6 J/K/mol
294.15 K | 361 J/K/mol and 360.1 J/K/mol
295.15 K | 358.1 J/K/mol and 360.9 J/K/mol
296.15 K | 361.7 J/K/mol and 357.1 J/K/mol
297.15 K | 362.7 J/K/mol and 358.9 J/K/mol
298.15 K | 363.2 J/K/mol and 359.6 J/K/mol
299.15 K | 364 J/K/mol and 360.7 J/K/mol
300.15 K | 364.6 J/K/mol and 361.2 J/K/mol
301.15 K | 361.7 J/K/mol and 365.3 J/K/mol
302.15 K | 362.2 J/K/mol and 365.8 J/K/mol
303.15 K | 362.3 J/K/mol and 366.4 J/K/mol
304.15 K | 362.8 J/K/mol and 367.1 J/K/mol
305.15 K | 363.3 J/K/mol and 367.6 J/K/mol
306.15 K | 363.8 J/K/mol and 368 J/K/mol
307.15 K | 364.3 J/K/mol and 368.5 J/K/mol
308.15 K | 364.8 J/K/mol and 368.9 J/K/mol
309.15 K | 364.9 J/K/mol and 369.4 J/K/mol
310.15 K | 365.4 J/K/mol and 369.7 J/K/mol
311.15 K | 365.8 J/K/mol and 370.3 J/K/mol
312.15 K | 366.4 J/K/mol and 370.8 J/K/mol
313.15 K | 367.2 J/K/mol and 371.5 J/K/mol
314.15 K | 368 J/K/mol and 372.1 J/K/mol
315.15 K | 368.7 J/K/mol and 372.8 J/K/mol
316.15 K | 369.2 J/K/mol and 373.6 J/K/mol
317.15 K | 369.5 J/K/mol and 374.3 J/K/mol
318.15 K | 369.7 J/K/mol and 374.7 J/K/mol
319.15 K | 370 J/K/mol and 375.4 J/K/mol
320.15 K | 370.2 J/K/mol and 375.7 J/K/mol
321.15 K | 370.7 J/K/mol and 376.2 J/K/mol
322.15 K | 371.2 J/K/mol and 376.9 J/K/mol
323.15 K | 371.5 J/K/mol and 377.5 J/K/mol
324.15 K | 372.1 J/K/mol and 378.2 J/K/mol
325.15 K | 372.8 J/K/mol and 378.7 J/K/mol
326.15 K | 373.8 J/K/mol and 379.3 J/K/mol
327.15 K | 374.7 J/K/mol and 380.1 J/K/mol
328.15 K | 375.4 J/K/mol and 380.6 J/K/mol
329.15 K | 375.7 J/K/mol and 381.3 J/K/mol
330.15 K | 375.6 J/K/mol and 381.8 J/K/mol
331.15 K | 375.4 J/K/mol and 382.1 J/K/mol
332.15 K | 375.2 J/K/mol and 382.9 J/K/mol
333.15 K | 374.9 J/K/mol and 383.1 J/K/mol
334.15 K | 375.2 J/K/mol and 383.9 J/K/mol
335.15 K | 375.7 J/K/mol and 384.7 J/K/mol
336.15 K | 377.2 J/K/mol
